Measured values published in patent publication US20140045823A1 (Neurocrine Biosciences, Inc., priority 2012, published 2014).

These compounds were tested against T1, human GPR119 (Homo sapiens, UniProt Q8TDV5) (assay: AlphaScreen cAMP assay in MIN6 cells stably transfected with human GPR119). Conditions: Min-6/hGPR119 cells, 45 min at room temperature.
T1 construct: expression vector for human GPR119 cDNA (Acc. No. NP_848566); expressed in transfected cells; Min-6/hGPR119
T1 sequence (Q8TDV5 1-335): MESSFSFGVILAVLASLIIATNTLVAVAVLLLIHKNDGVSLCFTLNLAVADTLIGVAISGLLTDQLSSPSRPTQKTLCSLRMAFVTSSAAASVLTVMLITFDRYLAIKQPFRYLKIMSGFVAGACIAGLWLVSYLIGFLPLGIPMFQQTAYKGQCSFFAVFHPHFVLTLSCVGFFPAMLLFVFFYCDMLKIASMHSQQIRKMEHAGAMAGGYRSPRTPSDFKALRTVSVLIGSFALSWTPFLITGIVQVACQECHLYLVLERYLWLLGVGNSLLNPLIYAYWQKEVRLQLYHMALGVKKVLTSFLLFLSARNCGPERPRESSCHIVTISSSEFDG
Format: cell-based
Experimental: The compounds of formula I according to the invention modulate the activity of the G-protein-coupled receptor GPR119. The effect of the compounds on the activation of GPR119 and on the stimulation of intracellular cAMP concentration is determined using the AlphaScreen cAMP Assay Kit (Cat. No. #6760625R) made by PerkinElmer.
MIN6 cells [Miyazaki J et al. Endocrinology. 1990 July; 127(1):126-32] are stably transfected with an expression vector for human GPR119 cDNA (Acc. No. NP_848566). Min-6/hGPR119 cells are cultured in DMEM, 10% FBS, 50 μM β-mercaptoethanol, 0.3 mg/mL Geniticin, 2 mM GlutaMAX at 37° C. 5% CO2. For the assay, the cells are seeded in Optiplates (white, 384-well, 160 W—barcoded, TC, sterile with lid, Cat. No. #6007688 (Perkin Elmer); 10000 cells/well; 50 μl). The plates covered with lids are then incubated for 24 hours at 37° C./5% CO2. After the medium is aspirated from the wells completely, 10 μl of the test compound are added, the compounds are diluted using stimulating buffer (140 mM NaCl, 3.6 mM KCl, 0.5 mM NaH2PO4, 0.5 mM MgSO4, 1.5 mM CaCl2, 10 mM Hepes, 5 mM NaHCO3; pH 7.4. 0.5 mM IBMX and 0.1% BSA, the final DMSO concentration is 1%). After 45 minutes incubation at room temperature (approx. 20° C.), the cAMP concentrations are determined using the AlphaScreen cAMP Assay Kit (Cat. No. #6760625R from PerkinElmer).

In order of falling EC50:
1. Cc1cc(C)n(-c2ncc(C(=O)N(C3CC3)C3CCN(C(=O)OC(C)(C)C)CC3)cn2)n1 [Example 57, 4-{Cyclopropyl-[2-(3,5-dimethyl-pyrazol-1-yl)-pyrimidine-5-carbonyl]-amino}-piperidine-1-carboxylic acid tert-butyl ester]  3750 nM
2. COCCN(C)C(=O)Cc1ccc(-c2ncc(C(=O)N(C3CC3)C3CCN(C(=O)OC(C)(C)C)CC3)cn2)cc1 [Example 195, 4-{Cyclopropyl-[2-(4-{[(2-methoxy-ethyl)-methyl-carbamoyl]-methyl}-phenyl)-pyrimidine-5-carbonyl]-amino}-piperidine-1-carboxylic acid tert-butyl ester]  486 nM
3. CN(CCC#N)C(=O)c1ccc(-c2ncc(C(=O)N(C3CC3)C3CCN(C(=O)OC(C)(C)C)CC3)cn2)cc1 [Example 177, 4-[(2-{4-[(2-Cyano-ethyl)-methyl-carbamoyl]-phenyl}-pyrimidine-5-carbonyl)-cyclopropyl-amino]-piperidine-1-carboxylic acid tert-butyl ester]  456 nM
4. CC(C)(C)OC(=O)N1CCC(N(C(=O)c2cnc(-c3ccc(C(=O)N4CCC[C@@H]4C#N)cc3)nc2)C2CC2)CC1 [Example 245, 4-({2-[4-(2-Cyano-pyrrolidine-1-carbonyl)-phenyl]-pyrimidine-5-carbonyl}-cyclopropyl-amino)-piperidine-1-carboxylic acid tert-butyl ester]  322 nM
5. CN(Cc1ccncc1)C(=O)Cc1ccc(-c2ncc(C(=O)N(C3CC3)C3CCN(C(=O)OC(C)(C)C)CC3)cn2)cc1 [Example 209, 4-[Cyclopropyl-(2-{4-[(methyl-pyridin-4-ylmethyl-carbamoyl)-methyl]-phenyl}-pyrimidine-5-carbonyl)-amino]-piperidine-1-carboxylic acid tert-butyl ester]  312 nM
6. CC(C)(C)OC(=O)N1CCC(N(C(=O)c2cnc(-c3ccc(C(=O)N4CCC(O)(C(F)(F)F)CC4)c(F)c3)nc2)C2CC2)CC1 [Example 141, 4-(Cyclopropyl-{2-[3-fluoro-4-(4-hydroxy-4-trifluoromethyl-piperidine-1-carbonyl)-phenyl]-pyrimidine-5-carbonyl}-amino)-piperidine-1-carboxylic acid tert-butyl ester]  231 nM
7. CC(C)(C)OC(=O)N1CCC(N(C(=O)c2cnc(-c3ccc(C(=O)Nc4ccc(CO)cc4)c(F)c3)nc2)C2CC2)CC1 [Example 121, 4-(Cyclopropyl-{2-[3-fluoro-4-(4-hydroxymethyl-phenylcarbamoyl)-phenyl]-pyrimidine-5-carbonyl}-amino)-piperidine-1-carboxylic acid tert-butyl ester]  180 nM
8. COC1CN(C(=O)c2ccc(-c3ncc(C(=O)N(C4CC4)C4CCN(C(=O)OC(C)(C)C)CC4)cn3)cc2)C1 [Example 226, 4-(Cyclopropyl-{2-[4-(3-methoxy-azetidine-1-carbonyl)-phenyl]-pyrimidine-5-carbonyl}-amino)-piperidine-1-carboxylic acid tert-butyl ester]  179 nM
9. CC(C)(C)OC(=O)N1CCC(N(C(=O)c2cnc(-c3ccc(C(=O)N4CC(F)(F)C4)cc3)nc2)C2CC2)CC1 [Example 187, 4-(Cyclopropyl-{2-[4-(3,3-difluoro-azetidine-1-carbonyl)-phenyl]-pyrimidine-5-carbonyl}-amino)-piperidine-1-carboxylic acid tert-butyl ester]  122 nM
10. CC(C)(C)OC(=O)N1CCC(N(C(=O)c2cnc(-c3ccc(C(=O)NCc4ccncc4)c(F)c3)nc2)C2CC2)CC1 [Example 126, 4-[Cyclopropyl-(2-{3-fluoro-4-[(pyridin-4-ylmethyl)-carbamoyl]-phenyl}-pyrimidine-5-carbonyl)-amino]-piperidine-1-carboxylic acid tert-butyl ester]  99 nM
11. CCc1nccn1-c1ncc(C(=O)N(C2CC2)C2CCN(C(=O)OC(C)(C)C)CC2)cn1 [Example 97, 4-{Cyclopropyl-[2-(2-ethyl-imidazol-1-yl)-pyrimidine-5-carbonyl]-amino}-piperidine-1-carboxylic acid tert-butyl ester]  59 nM
